Values of other authors as cited in US6811967B2 (The University of Manitoba, priority 2001, dated 2004).

Legend:
human SSAT = target: T1, human SSAT (Homo sapiens, UniProt P21673); settings: human SSAT expressed in E. coli (Parry et al. 1995)
T1 construct: host or cells: E. coli

[1] = weak base, primary amine
[2] = Sprague-Dawley rats, same therapeutic dose (Goralski et al. 1999)

T1 sequence (P21673 whole entry): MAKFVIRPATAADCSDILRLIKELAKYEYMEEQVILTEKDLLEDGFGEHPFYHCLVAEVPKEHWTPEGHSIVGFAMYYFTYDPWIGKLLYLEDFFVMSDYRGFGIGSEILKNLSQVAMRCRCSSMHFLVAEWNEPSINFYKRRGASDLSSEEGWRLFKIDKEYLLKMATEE

Compound	acetylation by SSAT (human SSAT)	pKa [1]	urinary excretion of acetylamantadine [2]
NCCCNCCS [WR1065, S-2-(3-aminopropylamino) ethanethiol]	acetylated by SSAT		
CCCCNCCCN [N-(n-butyl)-1,3-diaminopropane]	acetylated by SSAT		
NC12CC3CC(CC(C3)C1)C2 [amantadine, 1-adamantanamine]		10.1	did not excrete acetylamantadine
N=C(N)NCCCCCCC(=O)NC(O)C(=O)NCCCCNCCCN (centres unmarked) [1-deoxyspergualin]	acetylated by SSAT		
